# Data as given in ChEMBL document CHEMBL1146268, “Ponapensin, a cyclopenta[bc]benzopyran with potent NF-kappaB inhibitory activity from Aglaia ponapensis” (Bioorg Med Chem Lett, 2007).
# Key:
# [1] = Inhibition of NF-kappaB by ELISA assay; parameters: species or system Homo sapiens
# MCF7 = test: Cytotoxicity against MCF7 cells; assay type: functional; details: Homo sapiens, read-out: ED50 (the source's name)
# LNCaP = test: Cytotoxicity against LNCaP cells; assay type: functional; details: Homo sapiens, read-out: ED50 (the source's name)
# Lu1 = test: Cytotoxicity against Lu1 cells; assay type: functional; details: Homo sapiens, read-out: ED50 (the source's name)
Compound,IC50 [1],other results
COc1ccc(C2OC(=O)c3c(OC)cc(OC)cc32)cc1 (centres undefined),1900 nM,–
C/C=C1/C(=O)C[C@H]2[C@@H]3CC=C4[C@@H](O)[C@@H](O)CC[C@]4(C)[C@H]3CC[C@]12C,–,EC50 (MCF7): 4.2 µg/mL; EC50 (LNCaP): 4.7 µg/mL; EC50 (Lu1): 4.6 µg/mL
COc1ccc([C@]23Oc4cc(OC)cc(OC)c4[C@](O)([C@H](C(=O)N4CCC[C@@H]4OC)[C@H]2c2ccccc2)[C@@H]3O)cc1 (relative stereo) [PONAPENSIN],60 nM,–
CCC(C)C(=O)N[C@@H]1CCCN1C(=O)[C@@H]1[C@@H](c2ccccc2)[C@]2(c3ccc(OC)cc3)Oc3cc(OC)cc(OC)c3[C@@]1(O)[C@@H]2OC(C)=O (some centres undefined) [4-EPIAGLAIN A],> 5000 nM,–
COC(=O)[C@H]1[C@@H](O)[C@@]2(O)c3c(OC)cc(OC)cc3O[C@@]2(c2ccc(OC)cc2)[C@@H]1c1ccccc1 [AGLAFOLIN],2300 nM,–
CCC(C)C(=O)N[C@@H]1CCCN1C(=O)[C@H]1[C@H](c2ccccc2)[C@]2(c3ccc(OC)cc3)Oc3cc(OC)cc(OC)c3[C@@]1(O)[C@@H]2O (some centres undefined) [AGLAIN B],> 5000 nM,–
COc1ccc([C@@]23Oc4cc(OC)cc(OC)c4[C@]2(O)[C@H](O)[C@H](C(=O)N(C)C)[C@H]3c2ccccc2)cc1 [ROCAGLAMIDE],2000 nM,–
